pEC50: −log10 of the molar value.

Test [1] concerns HIV-1 NL4-3. Nature of the test: microbe, parasite or virus in culture. Here is the method: (§1) Virus and cell lines. The T-cell line, MT-2 was obtained through the AIDS Research and Reference Reagent Program, NIAID and was contributed by Dr. D. Richman. The cell line was cultured in RPMI 1640 medium supplemented with 10% fetal bovine serum, 2 mM L-glutamine and sub-cultured twice a week. The NL4-3 strain of HIV-1 was obtained from the AIDS Research and Reference Reagent Program. Both virus stocks were amplified and titered in MT-2 cells using a virus infectivity assay.
(§2) Drug Susceptibility and Cytotoxicity Assays. For drug susceptibility assays, MT-2 cells were infected with HIV-1 NL4-3 at an MOI of 0.001, and seeded into 96-well microtiter plates (2.5×10^5 cells/ml) containing serial dilutions of test compounds. […] Each drug ratio consisted of an array of 3-fold serial dilutions, and was performed in quadruplicate. The plates were incubated at 37° C./5% CO2. The MT-2 cells infected with HIV-1 NL4-3 were incubated for 5 days. On day-five post-infection, 20 μl from each well was harvested and quantitated by a reverse transcriptase (RT) assay or an MTS assay. Cytotoxicity assays were performed using uninfected cells, exposed to the same drug combinations, and incubated for five days. Cell viability was determined by an XTT assay. The CC50 values were calculated by using the exponential form of the median effect equation as mentioned below for calculation of EC50.
(§3) In this equation, Fa stands for “fraction affected,” and represents the fraction of the viral load that has been inactivated.
In carrying out the combination experiments below, the EC50 for Compound 1 and each comparator compound was determined during the course of each study, and used in the subsequent data analysis.

Test [2] concerns HIV-1 NL4-3. Nature of the test: Two-drug combination study with Compound 1 (combination indices). The class given is cell-based. The note with it: for Combination Indices at 50% HIV Inhibition (Confidence Interval) / Combination Indices at 75% HIV Inhibition (Confidence Interval) / Combination Indices at 90% HIV Inhibition (Confidence Interval): 95% CI in parentheses; for Overall Result: overall antiviral effect of the two-drug combination with Compound 1, all ratios and effective levels. The method, then: as §1, §2
Analysis of Drug Combination Effects. For determination of CI values, drugs were diluted in a fixed ratio and multiple ratios were analyzed. The drug serial dilutions spanned a range of concentrations near the EC50 value of each compound, so that equivalent antiviral activities could be compared. Concentration-response curves were estimated for each individual drug and every combination using the median-effect equation. The equation was fit using a nonlinear regression routine (Proc Nlin) in PC SAS version 8.01 (SAS Institute Inc., SAS Version 8.01, Cary, N.C.: SAS Institute Inc., 1990).
as §3
To assess antiviral effects of different drug combination treatments, combination indices (CIs) were calculated according to Chou and Rideout. The combination index was computed as CI=[D]1/[Dm]1+[D]2/[Dm]2
In this equation [Dm]1 and [Dm]2 are the concentrations of drugs that would individually produce a specific level of effect, while [D]1 and [D]2 are the concentrations of drugs in combination that would produce the same level of effect.
Theoretically, additivity is implied if the CI is equal to one, synergy if the CI is less than one, and antagonism if the CI is greater than one. […] At best, we can construct a range that contains the likely values for the CI, given the noise in the data. In this report, these ranges are reported in parentheses next to each point estimate of the CI. […] If the range fell entirely above 1.0, we would infer antagonistic behavior. If the range were to include 1.0, we would infer additivity.

[3] abbreviates: Human immunodeficiency virus 1, NL43, MT2, 120 h.
Where [4] appears, read: combination with Compound 1, EC50 ratio 1:1 (Compound 1:comparator).
The mark [5] stands for this setting: combination with Compound 1, EC50 ratio 1:2.5 (Compound 1:comparator).
Setting [6] is: combination with Compound 1, EC50 ratio 2.5:1 (Compound 1:comparator).

Regarding `Nc1ccn([C@H]2CC[C@@H](CO)O2)c(=O)n1` [Zalcitabine, zalcitabine], the pEC50 in the test with HIV-1 NL4-3 [1] (setting [3]) is 6.92. The “Combination Indices at 50% HIV Inhibition (Confidence Interval)” value in the test with HIV-1 NL4-3 [2] (setting [4]) is given as 0.79 (0.64, 0.94); with HIV-1 NL4-3 [2] (setting [5]) it was 0.83 (0.70, 0.95); in the test with HIV-1 NL4-3 [2] (setting [6]), 0.85 (0.75, 0.95). Further, the “Combination Indices at 75% HIV Inhibition (Confidence Interval)” value was 0.75 (0.55, 0.96) in the test on HIV-1 NL4-3 [2] (setting [4]); 0.70 (0.56, 0.85) in the test on HIV-1 NL4-3 [2] (setting [5]); 0.72 (0.61, 0.84) in the test with HIV-1 NL4-3 [2] (setting [6]). Further, the “Combination Indices at 90% HIV Inhibition (Confidence Interval)” value is listed as 0.72 (0.42, 1.02) in the test on HIV-1 NL4-3 [2] (setting [4]); 0.60 (0.41, 0.80) with HIV-1 NL4-3 [2] (setting [5]); 0.61 (0.46, 0.77) with HIV-1 NL4-3 [2] (setting [6]). Besides, the “Overall Result” value in the test with HIV-1 NL4-3 [2] is on record as “Synergistic”; in the test on HIV-1 NL4-3 [2] (listed as zalcitabine), “synergistic”.
With `CC(C)(C)NC(=O)[C@@H]1CN(Cc2cccnc2)CCN1C[C@@H](O)C[C@@H](Cc1ccccc1)C(=O)N[C@H]1c2ccccc2C[C@H]1O` [Indinavir, indinavir], the pEC50 in the test on HIV-1 NL4-3 [1] (setting [3]) is 8.22. The “Combination Indices at 50% HIV Inhibition (Confidence Interval)” value is given as 0.64 (0.42, 0.85) in the test with HIV-1 NL4-3 [2] (setting [4]); 0.92 (0.68, 1.16) in the test on HIV-1 NL4-3 [2] (setting [5]); 0.41 (0.29, 0.53) in the test on HIV-1 NL4-3 [2] (setting [6]). The “Combination Indices at 75% HIV Inhibition (Confidence Interval)” value with HIV-1 NL4-3 [2] (setting [4]) is 1.17 (0.63, 1.71); in the test with HIV-1 NL4-3 [2] (setting [5]), 1.07 (0.68, 1.46); in the test on HIV-1 NL4-3 [2] (setting [6]), 0.70 (0.42, 0.97). Also, the “Combination Indices at 90% HIV Inhibition (Confidence Interval)” value with HIV-1 NL4-3 [2] (setting [4]) is given as 2.15 (0.53, 3.78); in the test with HIV-1 NL4-3 [2] (setting [5]), 1.24 (0.51, 1.97); with HIV-1 NL4-3 [2] (setting [6]), 1.19 (0.40, 1.97). Further, the “Overall Result” value is reported as “Additive-” in the test with HIV-1 NL4-3 [2] and “additive to synergistic” with HIV-1 NL4-3 [2] (listed as indinavir).
As to enfuvirtide, the pEC50 in the test on HIV-1 NL4-3 [1] (NL4-3) is 8.15. Further, the “Combination Indices at 50% HIV Inhibition (Confidence Interval)” value is 0.74 (0.58, 0.89) in the test on HIV-1 NL4-3 [2] (setting [4]); 0.72 (0.55, 0.89) in the test with HIV-1 NL4-3 [2] (setting [5]); 1.04 (0.82, 1.27) in the test on HIV-1 NL4-3 [2] (setting [6]). Also, the “Combination Indices at 75% HIV Inhibition (Confidence Interval)” value in the test with HIV-1 NL4-3 [2] (setting [4]) is given as 0.95 (0.67, 1.24); in the test with HIV-1 NL4-3 [2] (setting [5]), 0.69 (0.46, 0.91); in the test with HIV-1 NL4-3 [2] (setting [6]), 0.95 (0.66, 1.24). The “Combination Indices at 90% HIV Inhibition (Confidence Interval)” value is reported as 1.25 (0.66, 1.83) in the test with HIV-1 NL4-3 [2] (setting [4]); 0.68 (0.33, 1.02) in the test on HIV-1 NL4-3 [2] (setting [5]); 0.87 (0.45, 1.29) in the test on HIV-1 NL4-3 [2] (setting [6]). Besides, the “Overall Result” value with HIV-1 NL4-3 [2] was “Additive-”; in the test on HIV-1 NL4-3 [2] (listed as T-20), “synergistic to additive”.
`CC(C)Nc1cccnc1N1CCN(C(=O)c2cc3cc(NS(C)(=O)=O)ccc3[nH]2)CC1` [Delavirdine, delavirdine]: the pEC50 in the test on HIV-1 NL4-3 [1] (setting [3]) was 7.30. For the same compound, the “Combination Indices at 50% HIV Inhibition (Confidence Interval)” value was 0.64 (0.50, 0.78) in the test with HIV-1 NL4-3 [2] (setting [4]); 0.56 (0.47, 0.64) in the test on HIV-1 NL4-3 [2] (setting [5]); 0.52 (0.44, 0.60) with HIV-1 NL4-3 [2] (setting [6]). In addition, the “Combination Indices at 75% HIV Inhibition (Confidence Interval)” value with HIV-1 NL4-3 [2] (setting [4]) is on record as 0.59 (0.41, 0.78); in the test on HIV-1 NL4-3 [2] (setting [5]) it was 0.41 (0.32, 0.50); in the test with HIV-1 NL4-3 [2] (setting [6]) it was 0.44 (0.34, 0.54). Besides, the “Combination Indices at 90% HIV Inhibition (Confidence Interval)” value with HIV-1 NL4-3 [2] (setting [4]) is given as 0.58 (0.30, 0.85); with HIV-1 NL4-3 [2] (setting [5]), 0.31 (0.20, 0.41); in the test on HIV-1 NL4-3 [2] (setting [6]) it was 0.39 (0.26, 0.53). The “Overall Result” value with HIV-1 NL4-3 [2] is “Synergistic”; in the test on HIV-1 NL4-3 [2] (listed as delavirdine), “strong synergistic effects”.

By pEC50 is commonly meant the negative decadic logarithm of the EC50, by convention in mol/L.

Source of the values: patent US20060058286A1, “Methods of treating HIV infection” (priority 2004, published 2006).
